The source of these data is DBAASP.

Holding throughout (assay): ≥ marks a high value that may be exact or a test limit, other limits are often not marked, values filed in µg/mL are converted to µM
Assay [1] has as its system Bacillus subtilis ATCC 6633.
In assay [2] the test system is Candida albicans ATCC 2002.
Assay [3] has as its system Escherichia coli ATCC 25922.
Assay [4] concerns Shigella dysenteriae.
The test system of assay [5] is Staphylococcus aureus ATCC 2592.
Assay [6] concerns Bacillus subtilis.
For assay [7], the system named is Pseudomonas aeruginosa ATCC 27853.
The subject of assay [8] is Enterococcus faecalis ATCC 29212.
Assay [9] concerns Staphylococcus aureus NCTC 8325.
The subject of assay [10] is Staphylococcus epidermidis RP62A.
Assay [11] has as its system Escherichia coli K-12.
Assay [12] concerns Staphylococcus aureus USA 300.
The test system of assay [13] is Pseudomonas aeruginosa CMCCB 10104.
In assay [14] the test system is Staphylococcus aureus ATCC BAA-1556.
For assay [15], the system named is Escherichia coli BW25113.

The term MIC denotes the lowest concentration that inhibits growth of the organism. A lower MIC goes with a more susceptible organism.

Values after ≈ are worked out from the molar mass of the structure shown. Values joined by “and” are separate entries in the source; they are usually repeats but may differ in a detail not shown here. Identical values can stand only once. Where only a bound is given, the exact number is not on record here.

In the case of `CC[C@H](C)[C@H](NC(=O)[C@@H]1CCCN1C(=O)[C@H](Cc1ccccc1)NC(=O)[C@@H](N)Cc1ccccc1)C(=O)N[C@H](C(=O)NCC(=O)N[C@@H](CCCCN)C(=O)N[C@@H](CCCN=C(N)N)C(=O)N[C@@H](CC(C)C)C(=O)N[C@@H](Cc1ccc(O)cc1)C(=O)NCC(=O)N[C@@H](CC(C)C)C(=O)N[C@@H](CC(C)C)C(N)=O)C(C)C` [FFPIVGKRLYGLL], the MIC in assay [1] amounted to 6.16 µM (≈ 9.37 µg/mL); in [2] it was 24.6 µM (≈ 37.5 µg/mL); in assay [3] it was 46 µM (≈ 70 µg/mL); in assay [4], 12.3 µM (≈ 18.7 µg/mL); in assay [5], 3.09 µM (≈ 4.7 µg/mL).

`CC[C@H](C)[C@H](NC(=O)[C@H](C)NC(=O)CNC(=O)[C@@H](NC(=O)[C@@H](NC(=O)[C@@H](NC(=O)CNC(=O)[C@@H](NC(=O)[C@@H](NC(=O)[C@@H](NC(=O)[C@H](C)NC(=O)[C@H](Cc1ccccc1)NC(=O)[C@H](CC(C)C)NC(=O)[C@H](CCCN=C(N)N)NC(=O)[C@H](CCCN=C(N)N)NC(=O)[C@H](CC(C)C)NC(=O)CNC(=O)CNC(=O)[C@@H](NC(=O)[C@@H](N)Cc1ccccc1)[C@@H](C)CC)[C@@H](C)O)C(C)C)C(C)C)[C@@H](C)O)C(C)C)C(C)C)C(=O)N[C@@H](CC(N)=O)C(=O)N[C@@H](CCCCN)C(=O)N[C@@H](CC(C)C)C(=O)NCC(=O)NCC(=O)NCC(=O)O` [FIGGLRRLFATVVGTVVGAINKLGGG]: the MIC was at least 38.9 µM in assay [6]; 2.45 µM (≈ 6.3 µg/mL) in [2]; 4.86 µM (≈ 12.5 µg/mL) in assay [3]; 8 µM (≈ 20.6 µg/mL) in assay [7]; 4.86 µM (≈ 12.5 µg/mL) in assay [5].

As for `CC[C@H](C)[C@H](NC(=O)[C@@H](NC(=O)[C@@H]1CCCN1C(=O)[C@H](CC(C)C)NC(=O)[C@@H](N)Cc1ccccc1)[C@@H](C)CC)C(=O)NCC(=O)N[C@@H](CCC(N)=O)C(=O)N[C@@H](CC(C)C)C(=O)N[C@@H](CC(C)C)C(=O)N[C@@H](CO)C(=O)NCC(=O)N[C@@H](CC(C)C)C(=O)N[C@@H](CC(C)C)C(N)=O` [FLPIIGQLLSGLL], the MIC was above 80 µM in assay [8], at least 80 µM in assay [9] and at least 80 µM in assay [10].

For the molecule `CC[C@H](C)[C@H](NC(=O)[C@H](CCCN=C(N)N)NC(=O)[C@H](CCC(N)=O)NC(=O)[C@@H](NC(=O)[C@@H](NC(=O)[C@H](CCCN=C(N)N)NC(=O)[C@H](CCCCN)NC(=O)[C@H](Cc1ccccc1)NC(=O)CN)[C@@H](C)CC)C(C)C)C(=O)N[C@@H](CCCCN)C(=O)N[C@@H](CC(=O)O)C(=O)N[C@@H](Cc1ccccc1)C(=O)N[C@@H](CC(C)C)C(=O)N[C@@H](C)C(=O)N[C@@H](CC(N)=O)C(=O)N[C@@H](CC(C)C)C(=O)N[C@H](C(N)=O)C(C)C` [GFKRIVQRIKDFLANLV], the minimum inhibitory concentration (MIC) is 15 µM (≈ 30.2 µg/mL) in [11]; 7.5 µM and 3.1 µM in assay [12].

With `CC[C@H](C)[C@H](N)C(=O)N[C@@H](CC(C)C)C(=O)NCC(=O)N1CCC[C@H]1C(=O)N[C@H](C(=O)N[C@H](C(=O)N[C@@H](CO)C(=O)N[C@H](C(=O)N[C@H](C(=O)NCC(=O)NCC(=O)N[C@H](C(=O)N[C@@H](CC(C)C)C(=O)NCC(=O)NCC(=O)N[C@@H](CC(C)C)C(=O)N[C@@H](CC(C)C)C(=O)N[C@@H](CCCCN)C(=O)N[C@@H](CC(N)=O)C(=O)N[C@@H](CC(C)C)C(N)=O)C(C)C)[C@@H](C)CC)[C@@H](C)O)[C@@H](C)CC)C(C)C` [ILGPVISTIGGVLGGLLKNL], the MIC in assay [2] was 2.33 µM (≈ 4.5 µg/mL); in [3] it was 4.65 µM (≈ 9 µg/mL); in [13], 4.65 µM (≈ 9 µg/mL); in assay [5] it was 2.33 µM (≈ 4.5 µg/mL).

In turn, `CC(C)C[C@H](NC(=O)[C@H](CC(C)C)NC(=O)[C@H](CC(C)C)NC(=O)[C@H](CC(C)C)NC(=O)[C@H](CC(C)C)NC(=O)[C@H](CC(C)C)NC(=O)[C@H](CCCCN)NC(=O)[C@H](CC(C)C)NC(=O)[C@@H](N)CCCCN)C(N)=O` [KLKLLLLLL] displayed an MIC in assay [14] of at least 100 µM.

`CC[C@H](C)[C@H](NC(=O)[C@H](Cc1c[nH]c2ccccc12)NC(=O)[C@H](CCCN=C(N)N)NC(=O)[C@H](C)NC(=O)[C@H](Cc1c[nH]c2ccccc12)NC(=O)[C@@H](N)CCCCN)C(=O)N[C@@H](CCCN=C(N)N)C(=O)N[C@@H](Cc1c[nH]c2ccccc12)C(=O)N[C@@H](CC(C)C)C(N)=O` [KWARWIRWL] yielded an MIC in [14] of 12.5 µM (≈ 16.4 µg/mL).

In the case of `CC[C@H](C)[C@H](NC(=O)[C@H](Cc1c[nH]c2ccccc12)NC(=O)[C@H](CCCN=C(N)N)NC(=O)[C@H](CCCN=C(N)N)NC(=O)[C@H](Cc1c[nH]c2ccccc12)NC(=O)[C@@H](N)CCCCN)C(=O)N[C@@H](CCCN=C(N)N)C(=O)N[C@@H](Cc1c[nH]c2ccccc12)C(=O)N[C@@H](C)C(N)=O` [KWRRWIRWA], the MIC in assay [14] came out at 12.5 µM (≈ 17 µg/mL).

The molecule `CC(C)C[C@H](NC(=O)[C@H](CC(C)C)NC(=O)[C@H](CCCCN)NC(=O)[C@H](CCCCN)NC(=O)[C@H](CC(C)C)NC(=O)[C@H](CC(C)C)NC(=O)[C@H](CC(C)C)NC(=O)[C@H](CC(C)C)NC(=O)[C@@H](N)CC(C)C)C(N)=O` [LLLLLKKLL] yielded an MIC in assay [14] of at least 100 µM.

Turning to `CC[C@H](C)[C@H](NC(=O)[C@H](CCCN=C(N)N)NC(=O)[C@@H](N)CCCN=C(N)N)C(=O)N[C@@H](CCCN=C(N)N)C(=O)N[C@@H](Cc1ccccc1)C(=O)N[C@@H](CCCN=C(N)N)C(=O)N1CCC[C@H]1C(=O)N1CCC[C@H]1C(=O)N[C@@H](Cc1ccc(O)cc1)C(=O)N[C@@H](CC(C)C)C(=O)N1CCC[C@H]1C(=O)N[C@@H](CCCN=C(N)N)C(=O)N1CCC[C@H]1C(=O)NCC(=O)N[C@@H](CCCN=C(N)N)C(=O)N[C@@H](CCCN=C(N)N)C(=O)O` [RRIRFRPPYLPRPGRR], in assay [15], the MIC was found to be 4 µM (≈ 8.37 µg/mL).

Turning to `CC[C@H](C)[C@H](NC(=O)[C@@H]1CCCN1C(=O)[C@H](CCCN=C(N)N)NC(=O)[C@H](CCCN=C(N)N)NC(=O)[C@H](CCCN=C(N)N)NC(=O)[C@H](Cc1c[nH]c2ccccc12)NC(=O)[C@@H]1CCCN1C(=O)[C@H](CCCN=C(N)N)NC(=O)[C@H](CCCN=C(N)N)NC(=O)[C@H](CCCN=C(N)N)NC(=O)[C@@H](N)CCCN=C(N)N)C(=O)N[C@@H](CCCN=C(N)N)C(=O)N1CCC[C@H]1C(=O)N1CCC[C@H]1C(=O)N[C@@H](Cc1ccccc1)C(=O)N[C@@H](Cc1ccc(O)cc1)C(=O)N[C@@H](Cc1c[nH]c2ccccc12)C(=O)O` [RRRRPWRRRPIRPPFYW], the minimal inhibitory concentration (MIC) in [15] is 8 µM (≈ 19.6 µg/mL).

Regarding `CC[C@H](C)[C@H](NC(=O)[C@@H]1CCCN1C(=O)[C@H](CCCN=C(N)N)NC(=O)[C@H](CCCN=C(N)N)NC(=O)[C@H](Cc1c[nH]c2ccccc12)NC(=O)[C@@H](N)CCCN=C(N)N)C(=O)N[C@@H](CCCN=C(N)N)C(=O)N[C@@H](CCCN=C(N)N)C(=O)N1CCC[C@H]1C(=O)N1CCC[C@H]1C(=O)N[C@H](C(=O)N[C@@H](CCCN=C(N)N)C(=O)N1CCC[C@H]1C(=O)N1CCC[C@H]1C(=O)N[C@@H](Cc1c[nH]c2ccccc12)C(=O)N[C@@H](Cc1ccc(O)cc1)C(=O)N1CCC[C@H]1C(=O)O)[C@@H](C)CC` [RWRRPIRRPPIRPPWYP], the MIC in [15] stood at 8 µM (≈ 18.4 µg/mL).

With `CC[C@H](C)[C@H](NC(=O)[C@@H]1CCCN1C(=O)[C@H](Cc1c[nH]c2ccccc12)NC(=O)[C@H](CCCN=C(N)N)NC(=O)[C@H](Cc1c[nH]c2ccccc12)NC(=O)[C@@H](N)CCCN=C(N)N)C(=O)N[C@@H](CCCN=C(N)N)C(=O)N[C@@H](CCCN=C(N)N)C(=O)N1CCC[C@H]1C(=O)N1CCC[C@H]1C(=O)N[C@H](C(=O)N[C@@H](CCCN=C(N)N)C(=O)N1CCC[C@H]1C(=O)N1CCC[C@H]1C(=O)N[C@@H](Cc1ccccc1)C(=O)N[C@@H](Cc1ccc(O)cc1)C(=O)N1CCC[C@H]1C(=O)O)[C@@H](C)CC` [RWRWPIRRPPIRPPFYP], in [15], the MIC came out at 8 µM (≈ 18.3 µg/mL).

In the case of `CC(C)C[C@H](NC(=O)[C@H](CCCCN)NC(=O)[C@H](CCCN=C(N)N)NC(=O)[C@H](Cc1c[nH]c2ccccc12)NC(=O)[C@H](Cc1c[nH]c2ccccc12)NC(=O)[C@H](CCCCN)NC(=O)[C@H](CCCCN)NC(=O)[C@H](Cc1c[nH]c2ccccc12)NC(=O)[C@H](CCCN=C(N)N)NC(=O)[C@H](CCCCN)NC(=O)[C@@H](N)C(C)C)C(=O)N[C@@H](CCCCN)C(=O)N[C@@H](CCCCN)C(=O)N[C@@H](CO)C(=O)N[C@H](C(N)=O)C(C)C` [VKRWKKWWRKLKKSV], the MIC in assay [6] is at least 48.6 µM; in [2], 4.56 µM (≈ 9.38 µg/mL); in [3] it was 9.12 µM (≈ 18.7 µg/mL); in [5], at least 48.6 µM.

For `CC(C)C[C@H](NC(=O)[C@H](Cc1c[nH]c2ccccc12)NC(=O)[C@H](Cc1c[nH]c2ccccc12)NC(=O)[C@H](CC(C)C)NC(=O)[C@H](Cc1c[nH]c2ccccc12)NC(=O)[C@H](CCCN=C(N)N)NC(=O)[C@H](CC(C)C)NC(=O)[C@H](Cc1c[nH]c2ccccc12)NC(=O)[C@@H](N)Cc1c[nH]c2ccccc12)C(N)=O` [WWLRWLWWL], the MIC in [14] was found to be 6.25 µM (≈ 9.02 µg/mL).

In the case of `CC(C)C[C@H](NC(=O)[C@H](Cc1c[nH]c2ccccc12)NC(=O)[C@H](Cc1c[nH]c2ccccc12)NC(=O)[C@H](CC(C)C)NC(=O)[C@H](Cc1c[nH]c2ccccc12)NC(=O)[C@H](Cc1c[nH]c2ccccc12)NC(=O)[C@H](CC(C)C)NC(=O)[C@H](Cc1c[nH]c2ccccc12)NC(=O)[C@@H](N)Cc1c[nH]c2ccccc12)C(N)=O` [WWLWWLWWL], the MIC in [14] is at least 100 µM.
